These results are taken from patent US20250326739A1, “CD38 MODULATORS AND USES THEREOF” (Aeovian Pharmaceuticals, Inc., priority 2022, published 2025).

One may read the IC50 as the point on the concentration scale where inhibition reaches its midpoint.

Counter-ions that a name gives are not always drawn.

One assay has as its target mouse CD38 (Mus musculus (Mouse), UniProt P56528). Put plainly: NAD+ cyclase activity assay with mouse recombinant CD38 protein. The assay is classed as biochemical. Conditions: 0.6 nM mouse CD38, 15.8 μM e-NAD substrate, fluorescence read-out. On the procedure: (§1) Example 5: NAD^+ Cydase Activity Assay with Human or Mouse Recombinant CD38 Protein
(§2) The following assay was used to determine the ability of compounds of the invention to inhibit the hydrolysis of NAD^+ by the human or mouse enzyme, CD38.
(§3) Reaction buffer: 40 mM HEPES/NaOH pH 7.5, 250 mM sucrose, 0.01% Tween
(§4) Final concentrations: 0.6 nM mouse CD38 (4947-AC, Bio-Techne GmbH) 1.9 nM human CD38 (AVI2404, Bio-Techne GmbH)
(§5) Substrate: 15.8 μM Nicotinamide 1,N6-ethenoadenine dinucleotide (E-NAD)
(§6) Read-out: Fluorescence intensity (extinction 300 nm/emission 410 nm)
(§7) Required reaction buffer, required CD38 concentration in reaction buffer and required e-NAD concentration in reaction buffer were prepared. Thereafter, 8 μL of CD38 in reaction buffer were added to High Control and compound concentration wells in 384 well plate (Corning #4514, 384 well, nonbinding surface, low volume, round bottom) and 8 μL of reaction buffer to Low Control. Compound dilutions were transferred via pintool technology that transfers 42.5 nL compound dilutions (12-point dose-response with factor three dilutions in 100% DMSO) well-to-well. Plate was subsequently shaken for 15 s at 1450 rpm and sealed for incubation for 30 min at room temperature. Thereafter, 2 μL of e-NAD in reaction buffer were added with Integra Voyager. After shaking for 15 s at 1450 rpm, plate was sealed, and assay signal was measured continuously with PHERAstar® fluorescence intensity module (extinction 300 nm/emission 410 nm).
(§8) Dose-response curves were constructed using twelve-point factor three dilutions in triplicates per plate. High control (full enzyme activity) was set to assay signal of CD38 and e-NAD in presence of vehicle (DMSO) and Low control (full enzyme inhibition) was set to assay signal of e-NAD and vehicle (DMSO) in absence of CD38. For data analysis, fluorescent signal of traces corresponding to each compound concentration and High and Low control was monitored over time. Each run, High Control (full enzyme activity) was fitted to Linear equation via GraphPad Prism to determine CD38 activity from the slope and determine the time interval of linear phase of reaction to account for minor fluctuations. Thereafter, slopes of all compound concentrations were determined via fitting to same linear equation (GraphPad Prism) over the same time interval as determined for High control. Percentage inhibition was calculated via normalization to High and Low Control via the equation: %−inhibition=100*(1−((Sample−Low control)/(High control−Low control))) Half maximal inhibitory concentration (IC50) values are yielded from the inflection point of the corresponding curve by fitting of resulting percentage inhibition values to standard equation (4 Parameter Logistic Model or Sigmoidal Dose-Response Model) via Excel Fit. Unless otherwise stated, fitting of curves was fixed to 100%-inhibition and unlocked for 0%-inhibition.

A further assay has as its target human CD38 (Homo sapiens (Human), UniProt P28907). As to the kind of experiment: NAD+ cyclase activity assay with human recombinant CD38 protein. The assay is classed as biochemical. Conditions: 1.9 nM human CD38, 15.8 μM e-NAD substrate, fluorescence read-out. On the procedure: as §1, §2, §3, §4, §5, §6, §7, §8

mouse CD38, sequence (P56528 whole entry): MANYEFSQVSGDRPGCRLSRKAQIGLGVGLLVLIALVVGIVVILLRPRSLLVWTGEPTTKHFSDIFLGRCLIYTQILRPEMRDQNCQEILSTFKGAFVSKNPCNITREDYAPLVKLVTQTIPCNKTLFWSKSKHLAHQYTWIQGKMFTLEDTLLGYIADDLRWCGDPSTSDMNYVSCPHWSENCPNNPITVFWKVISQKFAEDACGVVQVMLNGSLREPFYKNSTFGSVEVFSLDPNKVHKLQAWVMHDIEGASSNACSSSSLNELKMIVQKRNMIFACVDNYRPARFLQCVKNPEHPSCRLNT
human CD38, sequence (P28907 whole entry): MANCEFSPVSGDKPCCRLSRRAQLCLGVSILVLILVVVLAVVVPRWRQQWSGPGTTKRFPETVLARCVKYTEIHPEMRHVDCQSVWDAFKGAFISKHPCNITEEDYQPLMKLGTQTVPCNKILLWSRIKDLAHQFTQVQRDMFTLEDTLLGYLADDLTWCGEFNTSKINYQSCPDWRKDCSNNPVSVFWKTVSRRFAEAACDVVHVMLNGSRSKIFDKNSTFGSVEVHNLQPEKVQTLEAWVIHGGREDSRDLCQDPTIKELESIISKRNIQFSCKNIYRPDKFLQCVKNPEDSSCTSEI

On to `CS(=O)(=O)N1CCC(NC(=O)c2cccc(-n3ccnc3)n2)CC1` [Compound 16A, 6-(1H-Imidazol-1-yl)-N-(1-(methylsulfonyl)piperidin-4-yl)picolinamide], for which the IC50 at mouse CD38 was 1 to 10 nM; on human CD38, 30 to 100 nM.

Regarding `Cc1cc(C(=O)NC2CCCS(=O)(=O)C2)nc(-n2ccnc2)c1` (stereo not shown) [Compound 36A, N-(1,1-Dioxidotetrahydro-2H-thiopyran-3-yl)-6-(1H-imidazol-1-yl)-4-methylpicolinamide], the figures for the IC50 at mouse CD38 and at human CD38 were 1 to 10 nM and 100 to 1000 nM, respectively.

In the case of `Cc1cc(C(=O)NC2CCOCC2(C)C)nc(-n2ccnc2)c1` (stereo not shown) [Compound 27A, N-(3,3-Dimethyltetrahydro-2H-pyran-4-yl)-6-(1H-imidazol-1-yl)-4-methylpicolinamide], the figures for the IC50 on mouse CD38 and on human CD38 were 10 to 100 nM and 100 to 1000 nM, respectively.

As for `Cc1cc(C(=O)NC2CCN(S(C)(=O)=O)CC2)nc(-n2ccnc2)c1` [Compound 1A, 6-(1H-Imidazol-1-yl)-4-methyl-N-(1-(methylsulfonyl)piperidin-4-yl)picolinamide], the IC50 was 1 to 10 nM on mouse CD38 and 30 to 100 nM on human CD38.

`Cc1cc(C(=O)NC2CCN(C(=O)CN3CCOCC3)CC2)nc(-n2ccnc2)c1` [Compound 19A, 6-(1H-Imidazol-1-yl)-4-methyl-N-(1-(2-morpholinoacetyl)piperidin-4-yl)picolinamide]: the IC50 was in the range of 1 to 10 nM on mouse CD38 and 30 to 100 nM on human CD38.

Turning to `Cc1cc(C(=O)N[C@@H]2CCCN(S(C)(=O)=O)C2)nc(-n2ccnc2)c1` [Compound 54A, (R)-6-(1H-Imidazol-1-yl)-4-methyl-N-(1-(methylsulfonyl)piperidin-3-yl)picolinamide], the IC50 fell in the range of 1 to 10 nM at mouse CD38 and 30 to 100 nM at human CD38.

Take `Cc1cc(C(=O)N[C@H]2CCN(S(C)(=O)=O)C2)nc(-n2ccnc2)c1` [Compound 46A, (S)-6-(1H-imidazol-1-yl)-4-methyl-N-(1-(methylsulfonyl)pyrrolidin-3-yl)picolinamide]: the IC50 on mouse CD38 was 1 to 10 nM; on human CD38, 100 to 1000 nM.

With `O=C(N[C@@H]1CCCOC1)c1ccnc(-n2ccnc2)n1` [Compound 80A, (R)-2-(1H-Imidazol-1-yl)-N-(tetrahydro-2H-pyran-3-yl)pyrimidine-4-carboxamide], the IC50 was 1 to 10 nM on mouse CD38 and below 30 nM on human CD38.

With `Cc1cc(C(=O)N[C@@H]2CCOC2)nc(-n2ccnc2)c1` [Compound 42A, (R)-6-(1H-Imidazol-1-yl)-4-methyl-N-(tetrahydrofuran-3-yl)picolinamide], the 50% inhibitory concentration (IC50) on mouse CD38 is 1 to 10 nM; on human CD38, 30 to 100 nM.

Take `Cc1cc(C(=O)NC2CCN(S(=O)(=O)N(C)C)CC2)nc(-n2ccnc2)c1` [Compound 18A, N-(1-(N,N-Dimethylsulfamoyl)piperidin-4-yl)-6-(1H-imidazol-1-yl)-4-methylpicolinamide]: the half-maximal inhibitory concentration (IC50) at mouse CD38 is 1 to 10 nM; at human CD38, below 30 nM.

Regarding `Cc1ccc(-n2ccnc2)nc1C(=O)NC1CCN(S(C)(=O)=O)CC1` [Compound 79A, 6-(1H-Imidazol-1-yl)-3-methyl-N-(1-(methylsulfonyl)piperidin-4-yl)picolinamide], the results for the IC50 at mouse CD38 and on human CD38 were 10 to 100 nM and 100 to 1000 nM, respectively.

Consider `Cc1cc(C(=O)N[C@@H]2CCCN(C)C2)nc(-n2ccnc2)c1` [Compound 59A, (R)-6-(1H-Imidazol-1-yl)-4-methyl-N-(1-methylpiperidin-3-yl)picolinamide], for which the IC50 at mouse CD38 was 10 to 100 nM; on human CD38 it was above 1000 nM.

`CCCS(=O)(=O)N1CCC(NC(=O)c2cc(C)cc(-n3ccnc3)n2)CC1` [Compound 6A, 6-(1H-Imidazol-1-yl)-4-methyl-N-(1-(propylsulfonyl)piperidin-4-yl)picolinamide]: the figures for the IC50 at mouse CD38 and at human CD38 were 1 to 10 nM and below 30 nM, respectively.

As for `Cc1cc(C(=O)N[C@@H]2CCCN(C)C2=O)nc(-n2ccnc2)c1` [Compound 56A, (R)-6-(1H-Imidazol-1-yl)-4-methyl-N-(1-methyl-2-oxopiperidin-3-yl)picolinamide], the IC50 on mouse CD38 is above 100 nM; on human CD38, above 1000 nM.

Regarding `Cc1cc(C(=O)N[C@@H]2CCNC2)nc(-n2ccnc2)c1` [Compound 52A, (R)-6-(1H-Imidazol-1-yl)-4-methyl-N-(pyrrolidin-3-yl)picolinamide dihydrochloride], the figures for the concentration for half-maximal inhibition (IC50) on mouse CD38 and at human CD38 were above 100 nM and above 1000 nM, respectively.

`Cc1cc(C(=O)NC2CCS(=O)(=O)C2)nc(-n2ccnc2)c1` (stereo not shown) [Compound 23A, N-(1,1-Dioxidotetrahydrothiophen-3-yl)-6-(1H-imidazol-1-yl)-4-methylpicolinamide]: the IC50 on mouse CD38 lay in the range of 1 to 10 nM; at human CD38, 30 to 100 nM.

On to `Cc1cc(C(=O)NC2COCCC2(F)F)nc(-n2ccnc2)c1` (stereo not shown) [Compound 25A, N-(4,4-Difluorotetrahydro-2H-pyran-3-yl)-6-(1H-imidazol-1-yl)-4-methylpicolinamide], for which the 50% inhibitory concentration (IC50) on mouse CD38 was in the range of 1 to 10 nM; at human CD38, 30 to 100 nM.

For `Cc1cc(C(=O)N[C@H]2CCCNC2=O)nc(-n2ccnc2)c1` [Compound 60A, (S)-6-(1H-Imidazol-1-yl)-4-methyl-N-(2-oxopiperidin-3-yl)picolinamide], the results for the IC50 at mouse CD38 and at human CD38 were 1 to 10 nM and 100 to 1000 nM, respectively.

In the case of `Cc1cc(C(=O)NC2CN(S(C)(=O)=O)C2)nc(-n2ccnc2)c1` [Compound 7A, 6-(1H-Imidazol-1-yl)-4-methyl-N-(1-(methylsulfonyl)azetidin-3-yl)picolinamide], the IC50 on mouse CD38 lay within 1 to 10 nM; on human CD38, 30 to 100 nM.

`Cc1cc(C(=O)N[C@@H]2CCCS(=O)(=O)C2)nc(-n2ccnc2)c1` [Compound 57A, (R)—N-(1,1-Dioxidotetrahydro-2H-thiopyran-3-yl)-6-(1H-imidazol-1-yl)-4-methylpicolinamide]: the half-maximal inhibitory concentration (IC50) on mouse CD38 lay within 1 to 10 nM; at human CD38 it was 30 to 100 nM.

As for `Cc1cc(C(=O)NC2COCC(F)(F)C2)nc(-n2ccnc2)c1` (stereo in doubt) [Compound 67A, (R)—N-(5,5-Ddifluorotetrahydro-2H-pyran-3-yl)-6-(1H-imidazol-1-yl)-4-methylpicolinamide], the IC50 at mouse CD38 is 1 to 10 nM; on human CD38, 100 to 1000 nM.

Consider `CS(=O)(=O)N1CCC(NC(=O)c2cc(C(F)(F)F)nc(-n3ccnc3)n2)CC1` [Compound 75A, 2-(1H-Imidazol-1-yl)-N-(1-(methylsulfonyl)piperidin-4-yl)-6-(trifluoromethyl)pyrimidine-4-carboxamide], for which the half-maximal inhibitory concentration (IC50) on mouse CD38 is 1 to 10 nM; on human CD38 it was 30 to 100 nM.

Regarding `Cc1cc(C(=O)N[C@@H]2COCCC2(F)F)nc(-n2ccnc2)c1` [Compound 71A, (R)—N-(4,4-Difluorotetrahydro-2H-pyran-3-yl)-6-(1H-imidazol-1-yl)-4-methylpicolinamide], the IC50 on mouse CD38 is below 1 nM; on human CD38, 30 to 100 nM.

On to `COCCS(=O)(=O)N1CCC(NC(=O)c2cc(C)cc(-n3ccnc3)n2)CC1` [Compound 4A, 6-(1H-Imidazol-1-yl)-N-(1-((2-methoxyethyl)sulfonyl)piperidin-4-yl)-4-methylpicolinamide], for which the half-inhibitory concentration (IC50) is 1 to 10 nM on mouse CD38 and below 30 nM at human CD38.

`CNS(=O)(=O)N1CCC(NC(=O)c2cc(C)cc(-n3ccnc3)n2)CC1` [Compound 14A, 6-(1H-Imidazol-1-yl)-4-methyl-N-(1-(N-methylsulfamoyl)piperidin-4-yl)picolinamide]: the IC50 on mouse CD38 was in the range of 1 to 10 nM; at human CD38, 100 to 1000 nM.

In the case of `Cc1cc(C(=O)N[C@@H]2CCS(=O)(=O)C2)nc(-n2ccnc2)n1` [Compound 68A, (R)—N-(1,1-Dioxidotetrahydrothiophen-3-yl)-2-(1H-imidazol-1-yl)-6-methylpyrimidine-4-carboxamide], the IC50 at mouse CD38 is below 1 nM; on human CD38, below 30 nM.
